Data reported in the supplement of paper PMC10307832.

Tests used:
Assay in all cases: relative viability (nuclei count vs DMSO), 5 days (fraction); higher = more cells survive
[1] = tested on: ABC-1
Method in brief: (§1)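 After 5 days of treatment, lung cancer cells in 1536-well plates were fixed and stained in a single step (final 0.05% Triton X-100, 1% formaldehyde, 1 ug/ml Hoechst) and their nuclei counted on 4× images. Treatment had been applied by pin tool the day after seeding as one drug alone or as a fixed anchor-drug dose with five library-drug doses (not always all listed) in √10 steps. Relative viability is the nuclei count of treated wells divided by that of vehicle wells, and values are medians of duplicate plates.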

[2] = tested on: NCI-H460
Method in brief: as §1

[3] = tested on: NCI-H2170
Method in brief: as §1

[4] = tested on: PC-3 [JPC-3]
Method in brief: as §1

[5] = tested on: UMC-11
Method in brief: as §1

[6] = tested on: NCI-H2405
Method in brief: as §1

[7] = tested on: NCI-H2087
Method in brief: as §1

[8] = tested on: HCC-366
Method in brief: as §1

[9] = tested on: CAL-12T
Method in brief: as §1

[10] = tested on: LC-2-ad
Method in brief: as §1

[11] = tested on: NCI-H1944
Method in brief: as §1

Structure (SMILES): O=c1cc(-c2cccc3c2Sc2ccccc2S3)oc(N2CCOCC2)c1 + COc1cccc2cc(-c3nc([C@H]4CC[C@H](C(=O)O)CC4)n4ncnc(N)c34)[nH]c12 [OSI-027] (partner 0.5 µM)
- relative viability ([1]; first compound 0.08 µM): 0.501
- relative viability ([1]; first compound 0.253 µM): 0.478
- relative viability ([1]; first compound 0.8 µM): 0.609
- relative viability ([1]; first compound 2.53 µM): 0.452
- relative viability ([1]; first compound 8 µM): 0.445
- relative viability ([2]; first compound 0.08 µM): 0.605
- relative viability ([2]; first compound 0.253 µM): 0.994
- relative viability ([2]; first compound 0.8 µM): 0.643
- relative viability ([2]; first compound 2.53 µM): 0.568
- relative viability ([2]; first compound 8 µM): 0.527
- relative viability ([3]; first compound 0.08 µM): 0.78
- relative viability ([3]; first compound 0.253 µM): 0.801
- relative viability ([3]; first compound 0.8 µM): 0.727
- relative viability ([3]; first compound 2.53 µM): 0.508
- relative viability ([3]; first compound 8 µM): 0.717
- relative viability ([4]; first compound 0.08 µM): 0.763
- relative viability ([4]; first compound 0.253 µM): 0.8
- relative viability ([4]; first compound 0.8 µM): 0.783
- relative viability ([4]; first compound 2.53 µM): 0.698
- relative viability ([4]; first compound 8 µM): 0.787
- relative viability ([5]; first compound 0.08 µM): 0.546
- relative viability ([5]; first compound 0.253 µM): 0.562
- relative viability ([5]; first compound 0.8 µM): 0.457
- relative viability ([5]; first compound 2.53 µM): 0.429
- relative viability ([5]; first compound 8 µM): 0.514
- relative viability ([6]; first compound 0.08 µM): 0.604
- relative viability ([6]; first compound 0.253 µM): 0.647
- relative viability ([6]; first compound 0.8 µM): 0.61
- relative viability ([6]; first compound 2.53 µM): 0.61
- relative viability ([6]; first compound 8 µM): 0.618
- relative viability ([7]; first compound 0.08 µM): 0.352
- relative viability ([7]; first compound 0.253 µM): 0.649
- relative viability ([7]; first compound 0.8 µM): 0.589
- relative viability ([7]; first compound 2.53 µM): 0.416
- relative viability ([7]; first compound 8 µM): 0.452
- relative viability ([8]; first compound 0.08 µM): 0.89
- relative viability ([8]; first compound 0.253 µM): 1.2
- relative viability ([8]; first compound 0.8 µM): 0.692
- relative viability ([8]; first compound 2.53 µM): 0.723
- relative viability ([8]; first compound 8 µM): 0.775
- relative viability ([9]; first compound 0.08 µM): 0.671
- relative viability ([9]; first compound 0.253 µM): 0.709
- relative viability ([9]; first compound 0.8 µM): 0.407
- relative viability ([9]; first compound 2.53 µM): 0.57
- relative viability ([9]; first compound 8 µM): 0.297
- relative viability ([10]; first compound 0.08 µM): 0.814
- relative viability ([10]; first compound 0.253 µM): 0.934
- relative viability ([10]; first compound 0.8 µM): 0.792
- relative viability ([10]; first compound 2.53 µM): 0.741
- relative viability ([10]; first compound 8 µM): 0.727
- relative viability ([11]; first compound 0.08 µM): 0.376
- relative viability ([11]; first compound 0.253 µM): 0.403
- relative viability ([11]; first compound 0.8 µM): 0.367
- relative viability ([11]; first compound 2.53 µM): 0.34
- relative viability ([11]; first compound 8 µM): 0.38
